The supplement of paper PMC10307832

Tests used:
Test in all cases: relative viability (nuclei count vs DMSO), 5 days (fraction); higher = more cells survive
[1] = compound: C/C(=N\NC(=S)N1CCC1)/C2=CC=CC=N2 + O=C(CCCCCCC(=O)Nc1ccccc1)NO [Vorinostat] (partner 1 µM)
In short: (§1)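 Lung cancer cell lines were seeded in 1536-well plates and dosed by pin tool the next day, with either a single drug or a fixed anchor-drug dose combined with five library-drug doses (not always all listed) spaced in √10 steps. Five days later, one step fixed the cells and stained their nuclei (final 0.05% Triton X-100, 1% formaldehyde, 1 ug/ml Hoechst), and nuclei were counted on 4× images. Relative viability is the nuclei count in treated wells divided by the count in vehicle wells, and each value is the median of duplicate plates.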

[2] = compound: C/C(=N\NC(=S)N1CCC1)/C2=CC=CC=N2 + C[C@]1(O)C[C@@H](c2nc(-c3ccc4ccc(-c5ccccc5)nc4c3)c3c(N)nccn32)C1 [Linsitinib] (partner 1 µM)
In short: as §1

[3] = compound: C/C(=N\NC(=S)N1CCC1)/C2=CC=CC=N2 + CC1(C)CCC(c2ccc(Cl)cc2)=C(CN2CCN(c3ccc(C(=O)NS(=O)(=O)c4ccc(N[C@H](CCN5CCOCC5)CSc5ccccc5)c(S(=O)(=O)C(F)(F)F)c4)cc3)CC2)C1 [Navitoclax] (partner 0.5 µM)
In short: as §1

[4] = compound: C/C(=N\NC(=S)N1CCC1)/C2=CC=CC=N2 + Cc1nc(NC(=O)N2CCC[C@H]2C(N)=O)sc1-c1ccnc(C(C)(C)C(F)(F)F)c1 [Alpelisib] (partner 2 µM)
In short: as §1

Cell Line	relative viability ([1]; first compound 0.05 µM)	relative viability ([1]; first compound 0.1581 µM)	relative viability ([1]; first compound 0.5 µM)	relative viability ([1]; first compound 1.581 µM)	relative viability ([1]; first compound 5 µM)	relative viability ([2]; first compound 0.05 µM)	relative viability ([2]; first compound 0.1581 µM)	relative viability ([2]; first compound 0.5 µM)	relative viability ([2]; first compound 1.581 µM)	relative viability ([2]; first compound 5 µM)	relative viability ([3]; first compound 0.05 µM)	relative viability ([3]; first compound 0.1581 µM)	relative viability ([3]; first compound 0.5 µM)	relative viability ([3]; first compound 1.581 µM)	relative viability ([3]; first compound 5 µM)	relative viability ([4]; first compound 0.05 µM)	relative viability ([4]; first compound 0.1581 µM)	relative viability ([4]; first compound 0.5 µM)	relative viability ([4]; first compound 1.581 µM)	relative viability ([4]; first compound 5 µM)
LCLC-97TM1	0.071	0.0753	0.0572	0.0546	0.0434	0.117	0.176	0.1	0.105	0.108	0.124	0.421	0.0929	0.115	0.104	0.107	0.203	0.107	0.106	0.112
HARA	0.0948	0.381	0.0375	0.076	0.0809	0.212	0.0896	0.163	0.109	0.08	0.361	0.165	0.212	0.124	0.11	0.31	0.0915	0.122	0.145	0.0798
HCC-78	0.427	0.414	0.338	0.23	0.231	0.299	0.251	0.189	0.161	0.175	0.492	0.245	0.218	0.189	0.12	0.257	0.252	0.177	0.153	0.158
NCI-H1666	0.575	0.579	0.538	0.501	0.494	0.213	0.244	0.231	0.22	0.231	0.185	0.248	0.208	0.248	0.262	0.198	0.208	0.23	0.212	0.224
NCI-H2347	0.315	0.305	0.227	0.276	0.243	0.295	0.372	0.325	0.255	0.314	0.214	0.263	0.195	0.16	0.193	0.312	0.254	0.296	0.274	0.352
NCI-H838	0.286	0.266	0.249	0.17	0.178	0.241	0.224	0.198	0.183	0.143	0.259	0.258	0.229	0.192	0.225	0.243	0.211	0.189	0.189	0.172
NCI-H2023	0.082	0.0635	0.0543	0.0492	0.043	0.1	0.0863	0.0724	0.0807	0.0886	0.0701	0.096	0.0791	0.0888	0.0996	0.0758	0.0838	0.0704	0.0784	0.0669
201T	0.351	0.349	0.315	0.301	0.281	0.742	1	0.564	0.503	0.41	0.891	1.18	0.708	0.516	0.453	0.697	0.994	0.647	0.476	0.4
NCI-H1915	0.108	0.0989	0.117	0.11	0.118	0.523	1.03	0.228	0.176	0.153	0.522	0.742	0.169	0.15	0.137	0.501	1.08	0.174	0.157	0.143
NCI-H2009	0.0755	0.107	0.129	0.103	0.0974	0.139	0.163	0.154	0.165	0.138	0.1	0.136	0.0927	0.158	0.131	0.113	0.135	0.15	0.164	0.141
BEN	0.233	0.293	0.296	0.281	0.3	0.168	0.171	0.167	0.174	0.189	0.0467	0.0428	0.0598	0.115	0.114	0.195	0.194	0.266	0.232	0.198
PC-14	0.0311	0.0568	0.041	0.041	0.0331	0.0952	0.125	0.12	0.0874	0.117	0.0569	0.0561	0.0604	0.061	0.0618	0.108	0.0754	0.067	0.0556	0.0881
SK-MES-1	0.198	0.208	0.182	0.177	0.183	0.269	0.236	0.225	0.205	0.183	0.186	0.21	0.18	0.13	0.185	0.203	0.205	0.188	0.165	0.183
NCI-H727	0.298	0.327	0.299	0.311	0.304	0.203	0.115	0.213	0.222	0.238	0.109	0.0812	0.098	0.189	0.257	0.191	0.152	0.19	0.175	0.147
NCI-H1355	0.165	0.174	0.148	0.171	0.144	0.259	0.632	0.193	0.182	0.181	0.181	0.718	0.129	0.143	0.165	0.205	0.545	0.149	0.145	0.156
NCI-H1975	0.173	0.167	0.136	0.154	0.167	0.157	0.151	0.145	0.158	0.163	0.169	0.143	0.152	0.163	0.168	0.137	0.137	0.123	0.136	0.154
LK-2	0.117	0.143	0.145	0.169	0.127	0.14	0.154	0.18	0.114	0.125	0.121	0.146	0.108	0.112	0.126	0.182	0.28	0.283	0.176	0.243
NCI-H661	0.324	0.297	0.289	0.283	0.259	0.186	0.218	0.191	0.196	0.212						0.153	0.268	0.145	0.172	0.202
HCC-366	0.0207	0.0269	0.0257	0.0337	0.0244	0.0558	0.0147	0.0179	0.0206	0.0189	0.0139	0.0237	0.0184	0.0179	0.0172	0.0241	0.013	0.0152	0.0166	0.0137
HOP-62	0.0518	0.0592	0.0621	0.0833	0.0796	0.162	0.968	0.0703	0.0888	0.0655	0.169	0.0748	0.0823	0.104	0.0618	0.105	0.895	0.0809	0.0743	0.0607

Cell Line	relative viability ([1]; first compound 0.05 µM)	relative viability ([1]; first compound 0.1581 µM)	relative viability ([1]; first compound 0.5 µM)	relative viability ([1]; first compound 1.581 µM)	relative viability ([1]; first compound 5 µM)	relative viability ([2]; first compound 0.05 µM)	relative viability ([2]; first compound 0.1581 µM)	relative viability ([2]; first compound 0.5 µM)	relative viability ([2]; first compound 1.581 µM)	relative viability ([2]; first compound 5 µM)	relative viability ([3]; first compound 0.05 µM)	relative viability ([3]; first compound 0.1581 µM)	relative viability ([3]; first compound 0.5 µM)	relative viability ([3]; first compound 1.581 µM)	relative viability ([3]; first compound 5 µM)	relative viability ([4]; first compound 0.05 µM)	relative viability ([4]; first compound 0.1581 µM)	relative viability ([4]; first compound 0.5 µM)	relative viability ([4]; first compound 1.581 µM)	relative viability ([4]; first compound 5 µM)
NCI-H1944	0.17	0.154	0.137	0.126	0.135	0.875	1.06	0.6	0.259	0.196	0.684	0.988	0.392	0.189	0.18	0.669	0.794	0.307	0.191	0.133
SW 1573	0.0949	0.115	0.145	0.0758	0.0799	0.0916	0.123	0.113	0.152	0.0935	0.138	0.0732	0.0916	0.0833	0.0479	0.107	0.155	0.169	0.1	0.0847
LU99A	0.147	0.152	0.137	0.131	0.161	0.189	0.132	0.117	0.155	0.172	0.196	0.181	0.139	0.154	0.187	0.174	0.0993	0.112	0.142	0.135
EBC-1						0.13	0.19	0.137	0.0985	0.11	0.135	0.146	0.136	0.134	0.174	0.191	0.192	0.166	0.152	0.147
NCI-H1648	0.217	0.48	0.339	0.342	0.245															
SW 900	0.145	0.149	0.0776	0.125	0.183															
ABC-1	0.268	0.339	0.308	0.275	0.302	0.247	0.239	0.24	0.221	0.207						0.371	0.226	0.234	0.27	0.281
NCI-H1792						0.366	0.261	0.119	0.115	0.066	0.256	0.274	0.127	0.0935	0.084	0.457	0.373	0.153	0.114	0.085
NCI-H1563						0.684	0.541	0.563	0.612	0.629						0.528	0.493	0.492	0.573	0.596
NCI-H1299						0.0879	0.112	0.133	0.152	0.145	0.0935	0.128	0.17	0.178	0.124	0.094	0.195	0.213	0.213	0.15
ChaGo-K-1	0.164	0.159	0.155	0.143	0.165						0.293	0.47	0.27	0.218	0.374					
NCI-H2170	0.267	0.195	0.161	0.155	0.0916						0.581	0.543	0.168	0.207	0.189	0.747	0.731	0.177	0.173	0.17
NCI-H522	0.272	0.322	0.265	0.369	0.411															
A549						0.083	0.0782	0.0623	0.0706	0.053	0.0538	0.0583	0.05	0.0608	0.0344	0.0613	0.0588	0.054	0.0318	0.0406
NCI-H358	0.0785	0.0651	0.0611	0.0639	0.0677	0.179	0.196	0.163	0.125	0.181						0.196	0.174	0.142	0.118	0.155
NCI-H650	0.152	0.163	0.152	0.177	0.139	0.214	0.262	0.251	0.153	0.18						0.187	0.252	0.271	0.225	0.169
LCLC-103H	0.344	0.321	0.286	0.254	0.296	0.389	0.99	0.262	0.309	0.238						0.34	0.978	0.24	0.257	0.233
NCI-H1650	0.159	0.171	0.143	0.143	0.178						0.13	0.173	0.142	0.181	0.214					
Calu-6						0.11	0.1	0.127	0.115	0.108	0.106	0.122	0.123	0.141	0.126	0.141	0.151	0.148	0.151	0.124
